Results: US9352015B2, “Antimicrobial peptides” (priority 2009, dated 2016)
In brackets after ≈: the same amount, converted by molar mass. Several values for one entry are separate records, joined by “and”; a condition that tells them apart may be missing. Identical values can stand only once. Like-named read-outs stand apart in the source and are kept apart here.

What was measured:
[1] = RP-HPLC temperature profiling (peptide self-association parameter PA); format: physicochemical; conditions: RP-HPLC temperature profiling 5-80° C., pH 2, relative to control peptide C
Procedure: Temperature profiling analyses were performed on the same column in 3° C. increments, from 5° C. to 80° C., using a linear AB gradient of 0.5% acetonitrile/min, as described previously (30, 53, 92, 93).
Peptide self-association (i.e., the ability to oligomerize/dimerize) in aqueous solution is a very important parameter for antimicrobial activity (53, 92, 93). Without wishing to be bound by any particular theory, the present inventors postulated that monomeric random-coil antimicrobial peptides are best suited to pass through the capsule and cell wall of microorganisms prior to penetration into the cytoplasmic membrane, induction of α-helical structure and disruption of membrane structure to kill target cells (93). Thus, if the self-association ability of a peptide in aqueous media is too strong (e.g., forming stable folded dimers through interaction of their non-polar faces) this could decrease the ability of the peptide to dissociate to monomer, in addition oligomerization of the peptide can prevent it from effectively passing through the capsule and cell wall to reach the membrane. The ability of the peptides in the present study to self-associate was determined by the technique of RP-HPLC temperature profiling at pH 2 (29, 30, 38). The reason pH 2 is used to determine self-association of cationic AMPs is that highly positively charged peptides are frequently not eluted from reversed-phase columns at pH 7 due to non-specific binding to negatively charged silanols on the column matrix. This is not a problem at pH 2 since the silanols are protonated (i.e., neutral) and non-specific electrostatic interactions are eliminated. At pH 2, the interactions between the peptide and the reversed-phase matrix involve ideal retention behavior, i.e., only hydrophobic interactions between the preferred binding domain (nonpolar face) of the amphipathic molecule and the hydrophobic surface of the column matrix are present (39). […] Control peptide C is a monomeric random coil peptide in both aqueous and hydrophobic media; thus, its linear decrease in peptide retention behavior with increasing temperature within the range of 5° C. to 80° C. represents only the general effects of temperature due to greater solute diffusivity and enhanced mass transfer between the stationary and mobile phase at higher temperatures (55). To allow for these general temperature effects, the data for the control peptide was subtracted from each temperature profile as shown in FIG. 2B. Thus, the peptide self-association parameter, PA, represents the maximum change in peptide retention time relative to the random coil peptide C. Note that the higher the PA value, the greater the self-association.

Acinetobacter baumannii = format: cell-based
Procedure: (§1) Minimal inhibitory concentrations (MICs) are determined using a standard microtiter dilution method, with 3 sets of determinations, in LB (Luria-Bertani) no-salt medium (10 g of tryptone and 5 g of yeast extract per liter). In some cases, Mueller Hinton (MH) medium or Brain Heart Infusion (BHI) medium is used.
(§2) Briefly, cells were grown overnight at 37° C. in LB and diluted in the same medium. Serial dilutions of the peptides are added to the microtiter plates in a volume of 100 μl followed by 10 μl of bacteria to give a final inoculum of 5×10^5 colony-forming units/ml. Plates are incubated at 37° C. for 24 hours and MICs determined as the lowest peptide concentration that inhibited growth. Alternatively, minimal inhibitory concentrations are determined using a standard microtiter dilution method in a Mueller-Hinton (MH) medium. Briefly, cells are grown overnight at 37° C. in MH broth and diluted in the same medium. In some cases, serial dilutions of the peptides are added to the microtiter plates in a volume of 100 μl followed by 10 μl of bacteria to give a final inoculum of 1×10^5 colony-forming units/ml. Plates are incubated at 37° C. for 24 hours and MICs are determined as the lowest peptide concentration that inhibited growth.
The biological activities of these six peptide analogs was determined against 11 clinical isolated of Acinetobacter baumannii (Table 9). Please note that the activities are reported in micromolar rather than microgram/ml. This allows a direct comparison on a molar basis with the effectiveness of molecules of different molecular weights whether peptides disclosed herein or antibiotics which in general are smaller in molecular mass. […] These are the highest antimicrobial activities observed in studies of antimicrobial peptides derived by modifying the peptide sequence of SEQ ID NO:24 (D1). D22 has the best hemolytic activity of the six analogs (D17-D22) and a therapeutic index of […] compared to […] for D1 (Table 9). D22 has no apparent advantage over D1 as determined in these experiments.

[2] = system: Methicillin Resistant Staphylococcus aureus (MRSA) and Staphylococcus aureus; format: cell-based
Procedure: as §1, §2
Identification of Antimicrobial Peptides for Gram-positive Bacteria. In a manner similar to testing against gram-negative bacteria, experiments were carried out to screen the 14 peptides used to identify antimicrobial peptides with significant activity against A. baumanii shown above against 20 different clinical isolates of Methicillin Resistant Staphylococcus aureus (MRSA) and Staphylococcus aureus.

[3] = RP-HPLC retention as measure of overall peptide hydrophobicity; format: physicochemical; conditions: pH 2, room temperature
Procedure: Crude and purified peptides were analyzed on an Agilent 1100 series liquid chromatograph (Little Falls, Del.). Runs were performed on a Zorbax 300 SB-C8 column (150×2.1 mm I.D.; 5 μm particle size, 300 Å pore size) from Agilent Technologies using linear AB gradient (1% acetonitrile/min) and a flow rate of 0.25 ml/min, where eluant A was 0.2% aqueous TFA, pH 2 and eluant B was 0.2% TFA in acetonitrile.

[4] = Hemolytic activity against human erythrocytes (HC50 / MHC, microtiter dilution); format: cell-based; conditions: human, 1% human erythrocytes, pH 7.4
Procedure: Hemoglobin release was determined spectrophotometrically at 570 nm. The hemolytic activity was determined as the peptide concentration that caused 50% hemolysis of erythrocytes after 18 h (HC50). […] HC50 was determined by a plot of peptide concentration versus percent lysis.

Pseudomonas aeruginosa = conditions: for MIC PAO 1: 37° C., 24 h, strain PAO1; for MIC GM (geometric mean of the MIC values): six P. aeruginosa strains; for MIC CP 204: strain CP204; for MIC M 2: strain M2; for MIC PA 14: strain PA14; for MIC PAK: strain PAK; for MIC WR 5: strain WR5

Compound	PA (dimerization / self-association parameter) [1]	MIC GM (geometric mean) (Acinetobacter baumannii) [µM]	MIC GM (geometric mean) [2] [µM]	Hydrophobicity (retention time in RP-HPLC) [3] [min]	HC50 at 18 h [4]	MIC PAO 1 (Pseudomonas aeruginosa; Brain Heart Infusion medium) [µg/mL]	MIC GM (geometric mean of the MIC values) (Pseudomonas aeruginosa; Brain Heart Infusion medium) [µg/mL]	MIC CP 204 (Pseudomonas aeruginosa; Brain Heart Infusion medium) [µg/mL]	MIC M 2 (Pseudomonas aeruginosa; Brain Heart Infusion medium) [µg/mL]	MIC PA 14 (Pseudomonas aeruginosa; Brain Heart Infusion medium) [µg/mL]	MIC PAK (Pseudomonas aeruginosa; Brain Heart Infusion medium) [µg/mL]	MIC WR 5 (Pseudomonas aeruginosa; Brain Heart Infusion medium) [µg/mL]	MIC PAO 1 (Pseudomonas aeruginosa; Mueller Hinton medium) [µg/mL]	MIC GM (geometric mean of the MIC values) (Pseudomonas aeruginosa; Mueller Hinton medium) [µg/mL]	MIC CP 204 (Pseudomonas aeruginosa; Mueller Hinton medium) [µg/mL]	MIC M 2 (Pseudomonas aeruginosa; Mueller Hinton medium) [µg/mL]	MIC PA 14 (Pseudomonas aeruginosa; Mueller Hinton medium) [µg/mL]	MIC PAK (Pseudomonas aeruginosa; Mueller Hinton medium) [µg/mL]	MIC WR 5 (Pseudomonas aeruginosa; Mueller Hinton medium) [µg/mL]	MIC (Acinetobacter baumannii; 24 h) [µM]
CC[C@@H](C)[C@@H](NC(=O)[C@@H](C)NC(=O)[C@@H](CCCCN)NC(=O)[C@@H](CC(C)C)NC(=O)[C@@H](CC(C)C)NC(=O)[C@H](NC(=O)[C@@H](CCCCN)NC(=O)[C@@H](CC(C)C)NC(=O)[C@@H](C)NC(=O)[C@@H](CCCCN)NC(=O)[C@@H](CCCCN)NC(=O)[C@@H](CCCCN)NC(=O)[C@@H](C)NC(=O)[C@@H](CCCCN)NC(=O)[C@@H](CO)NC(=O)[C@@H](Cc1ccccc1)NC(=O)[C@H](NC(=O)[C@@H](CCCCN)NC(=O)[C@@H](CC(C)C)NC(=O)[C@@H](Cc1ccccc1)NC(=O)[C@@H](CO)NC(=O)[C@@H](CO)NC(=O)[C@@H](Cc1c[nH]c2ccccc12)NC(=O)[C@@H](CO)NC(C)=O)[C@H](C)O)[C@H](C)O)C(=O)N[C@H](CO)C(=O)N[C@H](CO)C(N)=O [Peptide D19, Ac-SWSSFLKTFSKAKKKALKTLLKAISS-amide]	7.07	0.8 (≈ 2.35 µg/mL)	5.3 (≈ 15.6 µg/mL)	97.94	36 µg/mL and 12.2 µM	7.8 (≈ 2.65 µM)	9.8	15.6 (≈ 5.31 µM)	7.8 (≈ 2.65 µM)	3.9 (≈ 1.33 µM)	15.6 (≈ 5.31 µM)	15.6 (≈ 5.31 µM)	3.9 (≈ 1.33 µM)	7.8	15.6 (≈ 5.31 µM)	15.6 (≈ 5.31 µM)	3.9 (≈ 1.33 µM)	3.9 (≈ 1.33 µM)	15.6 (≈ 5.31 µM)	
CC[C@@H](C)[C@@H](NC(=O)[C@@H](C)NC(=O)[C@@H](CCCCN)NC(=O)[C@@H](CC(C)C)NC(=O)[C@@H](CC(C)C)NC(=O)[C@H](NC(=O)[C@@H](CCCCN)NC(=O)[C@@H](CC(C)C)NC(=O)[C@@H](C)NC(=O)[C@@H](CCCCN)NC(=O)[C@@H](CCCCN)NC(=O)[C@@H](CCCCN)NC(=O)[C@@H](C)NC(=O)[C@@H](CCCCN)NC(=O)[C@@H](CO)NC(=O)[C@@H](Cc1ccccc1)NC(=O)[C@H](NC(=O)[C@@H](CCCCN)NC(=O)[C@@H](CC(C)C)NC(=O)[C@@H](Cc1ccccc1)NC(=O)[C@@H](CO)NC(=O)[C@@H](CCCCN)NC(=O)[C@@H](Cc1c[nH]c2ccccc12)NC(=O)[C@@H](CO)NC(C)=O)[C@H](C)O)[C@H](C)O)C(=O)N[C@H](CO)C(=O)N[C@H](CO)C(N)=O [Peptide D20, Ac-SWKSFLKTFSKAKKKALKTLLKAISS-amide]	6.39	0.6 (≈ 1.79 µg/mL)	6.0 (≈ 17.9 µg/mL)	95.90	77 µg/mL and 25.8 µM	7.8 (≈ 2.62 µM)	9.8	15.6 (≈ 5.23 µM)	7.8 (≈ 2.62 µM)	7.8 (≈ 2.62 µM)	15.6 (≈ 5.23 µM)	7.8 (≈ 2.62 µM)	7.8 (≈ 2.62 µM)	12.4	31.3 (≈ 10.5 µM)	15.6 (≈ 5.23 µM)	7.8 (≈ 2.62 µM)	7.8 (≈ 2.62 µM)	15.6 (≈ 5.23 µM)	
CC[C@@H](C)[C@@H](NC(=O)[C@@H](C)NC(=O)[C@@H](CO)NC(=O)[C@@H](CC(C)C)NC(=O)[C@@H](CC(C)C)NC(=O)[C@H](NC(=O)[C@@H](CCCCN)NC(=O)[C@@H](CC(C)C)NC(=O)[C@@H](C)NC(=O)[C@@H](CCCCN)NC(=O)[C@@H](CCCCN)NC(=O)[C@@H](CCCCN)NC(=O)[C@@H](C)NC(=O)[C@@H](CCCCN)NC(=O)[C@@H](CO)NC(=O)[C@@H](Cc1ccccc1)NC(=O)[C@H](NC(=O)[C@@H](CO)NC(=O)[C@@H](CC(C)C)NC(=O)[C@@H](Cc1ccccc1)NC(=O)[C@@H](CO)NC(=O)[C@@H](CO)NC(=O)[C@@H](Cc1c[nH]c2ccccc12)NC(=O)[C@@H](CO)NC(C)=O)[C@H](C)O)[C@H](C)O)C(=O)N[C@H](CO)C(=O)N[C@H](CO)C(N)=O [Peptide D17, Ac-SWSSFLSTFSKAKKKALKTLLSAISS-amide]	7.96	0.7 (≈ 2 µg/mL)	19.7 (≈ 56.3 µg/mL)	98.81	62 µg/mL and 21.7 µM	31.3 (≈ 11 µM)	35.1	62.5 (≈ 21.9 µM)	31.3 (≈ 11 µM)	15.6 (≈ 5.46 µM)	31.3 (≈ 11 µM)	62.5 (≈ 21.9 µM)	15.6 (≈ 5.46 µM)	22.1	31.3 (≈ 11 µM)	31.3 (≈ 11 µM)	15.6 (≈ 5.46 µM)	15.6 (≈ 5.46 µM)	31.3 (≈ 11 µM)	0.7 (≈ 2 µg/mL)
